Source: patent US10300106B2, “Autophagy-inducing peptide analogs” (Board of Regents, The University of Texas System, priority 2013, dated 2019)
Non-standard residues stand in square brackets, D forms with d. No end group written: not given here.

System: autophagy (p62 degradation, LC3-I to LC3-II conversion)
Test: Biochemical autophagy assays: western blot detection of p62 and of the conversion of LC3-I into LC3-II
Type: cell-based
Conditions: for Activity (autophagy inducing activity): relative to the wild-type (wt) peptide, all peptides carry the 11 amino acid HIV TAT PTD and diglycine linker
Protocol: Autophagy can be detected directly, indirectly or inferentially by conventional assays, such as disclosed and/or exemplified herein, including biochemically (by assessing the generation of Atg8-PE or LC3-II or the degradation of p62) or microscopically (e.g. by observing the localization pattern of fluorescently tagged Atg8 or LC3).
To further assess the components of the beclin 1 peptide required for autophagy-inducing activity, a series of shorter peptides were developed. Activity was measured by biochemical autophagy assays including western blot detection of p62 (a protein degraded by autophagy) and western blot detection of the conversion of LC3-I into LC3-II (the lipidated autophagosome-associated form of LC3).

[1] = 10 micromolar, western blot, compared to 10 micromolar Tat-Beclin 1 compound

Row | Sequence | Activity (autophagy inducing activity) | LC3-II conversion [1] | p62 degradation [1]
1 | VFNATFEMWHD (HIV TAT PTD-diglycine fusion) [Mutant 16, HIV TAT PTD-diglycine fusion peptide] | ~wt |  | 
2 | VFNATFDIWHD (HIV TAT PTD and diglycine linker fused) [Mutant 7, HIV TAT PTD-diglycine fusion peptide] | ~wt |  | 
3 | VFNATFEIWH (HIV TAT PTD and diglycine linker fused) [Mutant 25, HIV TAT PTD-diglycine fusion peptide] | >wt |  | 
4 | VFNATFEFWHD (HIV TAT PTD and diglycine linker fused) [Mutant 18, HIV TAT PTD-diglycine fusion peptide] | ~wt |  | 
5 | VWNATFHIWH (HIV TAT PTD and diglycine linker fused) [Mutant 28, HIV TAT PTD-diglycine fusion peptide] | >>wt |  | 
6 | DHWIHFTANWV ([dD][dH][dW][dI][dH][dF][dT][dA][dN][dW][dV]; also: fused to TAT PTD via diglycine linker) [Mutant 30, D-retro-inverso counterpart of Mutant 17, with TAT PTD and diglycine linker] | >>wt |  | 
7 | VFNATFELWHD (HIV TAT PTD and diglycine linker fused) [Mutant 8, HIV TAT PTD-diglycine fusion peptide] | >wt |  | 
8 | VWNATFELWHD (HIV TAT PTD-diglycine fusion) [Mutant 12, HIV TAT PTD-diglycine fusion peptide] | ~wt |  | 
9 | VLNATFEIWHD (HIV TAT PTD-diglycine fusion) [Mutant 15, HIV TAT PTD-diglycine fusion peptide] | ~wt |  | 
10 | VFNATFEIFHD (HIV TAT PTD and diglycine linker fused) [Mutant 9, HIV TAT PTD-diglycine fusion peptide] | ~wt |  | 
11 | VYNATFEIWHD (HIV TAT PTD-diglycine fusion) [Mutant 13, HIV TAT PTD-diglycine fusion peptide] | <wt |  | 
12 | FNATFEIWH (HIV TAT PTD and diglycine linker fused) [Mutant 26, HIV TAT PTD-diglycine fusion peptide] | >>wt |  | 
13 | VWNATFHIWHD (HIV TAT PTD-diglycine fusion) [Mutant 17, HIV TAT PTD-diglycine fusion peptide] | >>wt |  | 
14 | CFNATFEIWHD ({Tat PTD}-GGCFNATFEIWHD) [Mutant 1, HIV TAT PTD-diglycine fusion peptide] | ~wt |  | 
15 | WNATFHIWH (HIV TAT PTD and diglycine linker fused) [Mutant 27, HIV TAT PTD-diglycine fusion peptide] | >>wt |  | 
16 | VWNATFEIWHD ({Tat PTD}-GGVWNATFEIWHD) [Mutant 2, HIV TAT PTD-diglycine fusion peptide] | >wt |  | 
17 | VFDATFEIWHD ({Tat PTD}-GGVFDATFEIWHD) [Mutant 3, HIV TAT PTD-diglycine fusion peptide] | <<wt |  | 
18 | VFNATFERWHD (HIV TAT PTD and diglycine linker fused) [Mutant 20, HIV TAT PTD-diglycine fusion peptide] | ~wt |  | 
19 | VFNATFEIWHE (HIV TAT PTD-diglycine fusion) [Mutant 11, HIV TAT PTD-diglycine fusion peptide] | ~wt |  | 
20 | VFNATFEYWHD (HIV TAT PTD and diglycine linker fused) [Mutant 19, HIV TAT PTD-diglycine fusion peptide] | ~wt |  | 
21 | VFNATFEIWYD (HIV TAT PTD-diglycine fusion) [Mutant 10, HIV TAT PTD-diglycine fusion peptide] | ~wt |  | 
22 | VFNATFEVWHD (HIV TAT PTD-diglycine fusion) [Mutant 14, HIV TAT PTD-diglycine fusion peptide] | ~wt |  | 
23 | VFNACFEIWHD (HIV TAT PTD and diglycine linker fused) [Mutant 5, HIV TAT PTD-diglycine fusion peptide] | <wt |  | 
24 | FNATFEIWHD (HIV TAT PTD and diglycine linker fused) [Mutant 21, HIV TAT PTD-diglycine fusion peptide] | >wt |  | 
25 | VFNATFEIWHD [Wild-type (wt)] | wt | increased LC3-II conversion | increased p62 degradation
26 | WNATFHIWHD (HIV TAT PTD and diglycine linker fused) [Mutant 29, HIV TAT PTD-diglycine fusion peptide] | >>wt |  | 
27 | VFNATWEIWHD (HIV TAT PTD and diglycine linker fused) [Mutant 6, HIV TAT PTD-diglycine fusion peptide] | <wt |  | 
28 | VFNSTFEIWHD ({Tat PTD}-GGVFNSTFEIWHD) [Mutant 4, HIV TAT PTD-diglycine fusion peptide] | <<wt |  | 
